From PubChem BioAssay AID2060484 (Molecular Pharmacology Branch, DTP, NCI, 2025)

System: SUM149PT spheroids with HUVEC/MSC, viability
Experiment: Anticancer human tumor SUM149PT cell line growth inhibition [GQUAD];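 note: spheroids exposed to drugs for seven days before readout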;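 for viability, T/C: percent viability relative to DMSO vehicle control taken as 100%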
Conditions: for IC50: curve of first compound; for viability, T/C: stronger effect = lower value
How it was run: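 Multi-cell-type spheroids of tumor cells with HUVEC and mesenchymal stem cells, treated with drug combinations. Concentrations descend in half-log steps from near clinical Cmax, or from 10 microM where Cmax is unknown; viability read-out.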

[1] = second compound 0.0316 µM, first compound 0.0316 µM
[2] = second compound 0.0316 µM, first compound 0.1 µM
[3] = second compound 0.0316 µM, first compound 0.316 µM
[4] = second compound 0.0316 µM, first compound 1 µM
[5] = second compound 0.0316 µM, first compound 3.16 µM
[6] = second compound 0.0316 µM, first compound 10 µM
[7] = second compound 0.1 µM, first compound 0.0316 µM
[8] = second compound 0.1 µM, first compound 0.1 µM
[9] = second compound 0.1 µM, first compound 0.316 µM
[10] = second compound 0.1 µM, first compound 1 µM
[11] = second compound 0.1 µM, first compound 3.16 µM
[12] = second compound 0.1 µM, first compound 10 µM
[13] = second compound 0.316 µM, first compound 0.0316 µM
[14] = second compound 0.316 µM, first compound 0.1 µM
[15] = second compound 0.316 µM, first compound 0.316 µM
[16] = second compound 0.316 µM, first compound 1 µM
[17] = second compound 0.316 µM, first compound 3.16 µM
[18] = second compound 0.316 µM, first compound 10 µM
[19] = second compound 1 µM, first compound 0.0316 µM
[20] = second compound 1 µM, first compound 0.1 µM
[21] = second compound 1 µM, first compound 0.316 µM
[22] = second compound 1 µM, first compound 1 µM
[23] = second compound 1 µM, first compound 3.16 µM
[24] = second compound 1 µM, first compound 10 µM
[25] = second compound 3.16 µM, first compound 0.0316 µM
[26] = second compound 3.16 µM, first compound 0.1 µM
[27] = second compound 3.16 µM, first compound 0.316 µM
[28] = second compound 3.16 µM, first compound 1 µM
[29] = second compound 3.16 µM, first compound 3.16 µM
[30] = second compound 3.16 µM, first compound 10 µM
[31] = second compound 10 µM, first compound 0.0316 µM
[32] = second compound 10 µM, first compound 0.1 µM
[33] = second compound 10 µM, first compound 0.316 µM
[34] = second compound 10 µM, first compound 1 µM
[35] = second compound 10 µM, first compound 3.16 µM
[36] = second compound 10 µM, first compound 10 µM

With `CC1COCCN1c1cc(C2(S(C)(=N)=O)CC2)nc(-c2ccnc3[nH]ccc23)n1` (stereo unspecified) + Cc1[nH]c2ccc(F)cc2c1-c1nc2c3cccnc3c3ncccc3c2[nH]1 the IC50 (second compound 0.0316 µM) was 2380 nM, the IC50 (second compound 0.1 µM) was 2650 nM and the IC50 (second compound 0.316 µM) was 2830 nM. It also gave an IC50 (second compound 1 µM) of 2630 nM, an IC50 (second compound 3.16 µM) of 2450 nM and an IC50 (second compound 10 µM) of 2170 nM. The viability, T/C [1] was 95.9%, the viability, T/C [2] was 93.6% and the viability, T/C [3] was 99.7%. It also gave a viability, T/C [4] of 79.5%, a viability, T/C [5] of 40.5% and a viability, T/C [6] of 17.3%. The viability, T/C [7] was 112%, the viability, T/C [8] was 99.5% and the viability, T/C [9] was 86.7%. The viability, T/C [10] was 89.2%, the viability, T/C [11] was 41.9% and the viability, T/C [12] was 22.6%. It also gave a viability, T/C [13] of 103%, a viability, T/C [14] of 105% and a viability, T/C [15] of 89.8%. For the same molecule, the viability, T/C [16] was 83.6%, the viability, T/C [17] was 45% and the viability, T/C [18] was 20.6%. It also gave a viability, T/C [19] of 91.9%, a viability, T/C [20] of 100% and a viability, T/C [21] of 97.1%. The viability, T/C [22] was 83.9%, the viability, T/C [23] was 43.5% and the viability, T/C [24] was 19.6%. It also gave a viability, T/C [25] of 86.5%, a viability, T/C [26] of 84.9% and a viability, T/C [27] of 89.7%. For the same molecule, the viability, T/C [28] was 75.4%, the viability, T/C [29] was 42.8% and the viability, T/C [30] was 19%. For the same molecule, the viability, T/C [31] was 103%, the viability, T/C [32] was 96.5% and the viability, T/C [33] was 94.3%. The viability, T/C [34] was 79.5%, the viability, T/C [35] was 35.6% and the viability, T/C [36] was 18.3%.

With `Cc1cccc(N(C)C(=O)C2C(O)CCN2c2nc(C)cc(C(F)(F)F)c2C#N)c1` (stereo unspecified) + CN(C)c1ccc(Nc2c3ccc(NC(=O)CCN4CCCC4)cc3nc3cc(NC(=O)CCN4CCCC4)ccc23)cc1 the IC50 (second compound 0.0316 µM) was > 10000 nM, the IC50 (second compound 0.1 µM) was > 10000 nM and the IC50 (second compound 0.316 µM) was > 10000 nM. For the same molecule, the IC50 (second compound 1 µM) was > 10000 nM, the IC50 (second compound 3.16 µM) was > 10000 nM and the IC50 (second compound 10 µM) was 4020 nM. For the same molecule, the viability, T/C [1] was 97.4%, the viability, T/C [2] was 103% and the viability, T/C [3] was 104%. For the same molecule, the viability, T/C [4] was 103%, the viability, T/C [5] was 107% and the viability, T/C [6] was 110%. It also gave a viability, T/C [7] of 108%, a viability, T/C [8] of 95.3% and a viability, T/C [9] of 91.5%. For the same molecule, the viability, T/C [10] was 100%, the viability, T/C [11] was 98.7% and the viability, T/C [12] was 103%. The viability, T/C [13] was 92.7%, the viability, T/C [14] was 93.7% and the viability, T/C [15] was 88.7%. The viability, T/C [16] was 101%, the viability, T/C [17] was 94% and the viability, T/C [18] was 90.6%. The viability, T/C [19] was 85.8%, the viability, T/C [20] was 85.2% and the viability, T/C [21] was 76.2%. The viability, T/C [22] was 87.9%, the viability, T/C [23] was 84.9% and the viability, T/C [24] was 81.5%. The viability, T/C [25] was 99.2%, the viability, T/C [26] was 71% and the viability, T/C [27] was 77.2%. It also gave a viability, T/C [28] of 77.1%, a viability, T/C [29] of 91.2% and a viability, T/C [30] of 68%. It also gave a viability, T/C [31] of 82.1%, a viability, T/C [32] of 82.3% and a viability, T/C [33] of 74.3%. For the same molecule, the viability, T/C [34] was 76%, the viability, T/C [35] was 53% and the viability, T/C [36] was 37.9%.

In the case of `CC(=O)O[C@H]1C(=O)[C@@]2(C)[C@H]([C@H](OC(=O)c3ccccc3)[C@]3(O)C[C@H](OC(=O)[C@H](O)[C@@H](NC(=O)c4ccccc4)c4ccccc4)C(C)=C1C3(C)C)[C@]1(OC(C)=O)CO[C@@H]1C[C@@H]2O` + CN(C)c1ccc(Nc2c3ccc(NC(=O)CCN4CCCC4)cc3nc3cc(NC(=O)CCN4CCCC4)ccc23)cc1, the IC50 (second compound 0.0316 µM) is reported as < 31.6 nM, the IC50 (second compound 0.1 µM) is reported as < 31.6 nM and the IC50 (second compound 0.316 µM) is reported as < 31.6 nM. For the same molecule, the IC50 (second compound 1 µM) was < 31.6 nM, the IC50 (second compound 3.16 µM) was < 31.6 nM and the IC50 (second compound 10 µM) was < 31.6 nM. It also gave a viability, T/C [1] of 31.9%, a viability, T/C [2] of 25.3% and a viability, T/C [3] of 23.8%. For the same molecule, the viability, T/C [4] was 19.5%, the viability, T/C [5] was 19.8% and the viability, T/C [6] was 23.6%. For the same molecule, the viability, T/C [7] was 32.8%, the viability, T/C [8] was 24.7% and the viability, T/C [9] was 21.6%. It also gave a viability, T/C [10] of 17.8%, a viability, T/C [11] of 19.6% and a viability, T/C [12] of 25.7%. It also gave a viability, T/C [13] of 30.6%, a viability, T/C [14] of 25.6% and a viability, T/C [15] of 22.8%. For the same molecule, the viability, T/C [16] was 18.3%, the viability, T/C [17] was 17.2% and the viability, T/C [18] was 22.8%. For the same molecule, the viability, T/C [19] was 29.6%, the viability, T/C [20] was 24.4% and the viability, T/C [21] was 16.5%. The viability, T/C [22] was 13.8%, the viability, T/C [23] was 17% and the viability, T/C [24] was 19.2%. For the same molecule, the viability, T/C [25] was 27.7%, the viability, T/C [26] was 21.1% and the viability, T/C [27] was 17.5%. It also gave a viability, T/C [28] of 12.9%, a viability, T/C [29] of 15.7% and a viability, T/C [30] of 16.2%. It also gave a viability, T/C [31] of 26.8%, a viability, T/C [32] of 23.3% and a viability, T/C [33] of 15.8%. For the same molecule, the viability, T/C [34] was 14.5%, the viability, T/C [35] was 15.7% and the viability, T/C [36] was 18.2%.
